Experiments:
[1] = system: p21-induced CMV-GFP expression (CDKI pathway); assay: CMV-GFP reporter assay for p21-induced transcription (HTS) in HT1080 p21-9 derived reporter cell line; assay type: cell-based, human; conditions: libraries screened at 20 μM
From the text: As described in a co-pending patent application PCT/US06/0 1046, we have developed a high-throughput screening (HTS) procedure for compounds inhibiting the CDKI pathway. This procedure utilizes a highly sensitive reporter cell line that was generated by infecting HT1080 p21-9 cells, a derivative of HT1080 fibrosarcoma cells that express p21 from a promoter induced by a physiologically neutral β-galactoside IPTG (isopropyl-β-thio-galactoside) with a lentiviral vector that expresses Green Fluorescent Protein (GFP) from the CDKI-inducible cytomegalovirus (CMV) promoter, followed by subcloning of GFP positive cells and monitoring the induction of GFP expression by IPTG. A cell line showing approximately 10-fold increase in GFP upon the addition of IPTG was used for HTS in a 96-well format.
This reporter line was used to screen two diversified small-molecule libraries developed by ChemBridge Corp., Microformat 04 and DiverSet, each comprising 50,000 compounds. These diversified libraries were rationally chosen by ChemBridge by quantifying pharmacophores in a collection of >500,000 drug-like molecules, using a version of Chem-X software to maximize the pharmacophore diversity. The Microformat 04 collection was designed to complement the chemical space covered by the older DiverSet library. ChemBridge libraries have been successfully used by numerous industrial and academic researchers, in a variety of cell-based and cell-free assays. The ChemBridge libraries were screened at 20 μM concentration, a conventional concentration for cell-based screening of these libraries. 62 of 100,000 ChemBridge compounds were identified by HTS and verified as inhibiting the induction of CMV-GFP expression in response to p21. This low hit rate (0.06%) indicates a high selectivity of our assay.
In this experiment, HT1080 p21-9 cells that express firefly luciferase from a CDKI-responsive promoter of cellular NK4 gene were cultured with IPTG for two days, which is sufficient for near-maximal induction of NK4 (Poole et al., supra).

[2] = system: HT1080-derived reporter cell line; assay: Growth inhibition and cell death in HT1080-derived reporter cell line; assay type: cell-based, human; conditions: cell death detected microscopically by cell detachment
From the text: The combination of p21 and SNX9-class compounds leads to both G1 and G2/M arrest, at the levels expected for the combined effects of p21 and SNX9 (FIG. 6).

[3] = system: NFκB p50 and p65 subunits; assay: TransAM NFκB p65 and p50 Chemi Transcription Factor Assay (oligonucleotide binding); assay type: cell-based; conditions: TNFα-induced or basal
From the text: We also tested if these compounds could act as the inhibitors of NFκB, by measuring cellular levels of p50 or p65 subunits binding oligonucleotides containing NFκB consensus binding site, using ACTIVE MOTIF TransAM™ NFκB p65 Chemi and NFκB p50 Chemi Transcription Factor Assay Kits.

[4] = system: WI-38 and BJ-EN fibroblasts vs HT1080, HCT116, C33-A, Calu-6; assay: 3-day growth inhibition assay (Hoechst 33342), normal fibroblasts vs tumor cell lines; conditions: 3-day assay, WI-38, BJ-EN vs HT1080, HCT116, C33-A
Description: (§1) The assays were carried out in 96-well plates, in triplicates; the plated cell numbers for each cell line were determined in preliminary experiments to assure exponential growth over the 3-day period of the assay. The cell numbers were measured by staining DNA of attached cells with Hoechst 33342, and the results for each dose were expressed as the decrease in cell number relative to untreated cells. For some of the tumor/normal cell line combinations, the assays were repeated using CellTiter-Glo viability assay (Promega), with the same results.

[5] = system: HMEC primary cultures, MCF-7 and MDA231; assay: 3-day growth inhibition assay (Hoechst 33342), normal mammary epithelial cells vs breast carcinoma lines; conditions: 3-day assay; HMEC vs MCF-7 and MDA231
Description: as §1

[6] = system: isogenic human fibroblast cell lines (untransformed, partially transformed, fully transformed); assay: Dose-dependent growth inhibition of three isogenic human fibroblast cell lines with increasing neoplastic transformation; assay type: cell-based; conditions: 3-day assay, Hoechst 33342
From the text: To determine if tumor-specific growth inhibitory activity of SNX9 class compounds could be due to the inhibition of a specific CDK, we took advantage of the availability of selective inhibitors for some of the CDK proteins. Among these enzymes, CDK1, CDK2 and CDK4/CDK6 (the latter two CDKs are closely related to each other and interact with the same class of cyclins), have been used as targets for developing specific inhibitors, with potential anticancer activity. In contrast, CDK3 has not been used as a target for developing selective inhibitors. We have obtained commercially available selective inhibitors of CDK1 (CGP74514A) (Calbiochem Cat. No. 217696), CDK2 (CVT-313) (Calbiochem Cat. No. 238803), and CDK4 (NSC 625987) (Calbiochem Cat. No. 219477), and tested them, along with a broad-specificity CDK inhibitor flavopiridol, and with SNX14, SNX9 and SNX9-1, for growth inhibition of normal and transformed fibroblasts.
This analysis was done using a set of three isogenic human fibroblast cell lines with increasing degrees of neoplastic transformation (immortal but untransformed, partially transformed, and fully transformed).

Row | Compound | tumor selectivity of growth inhibition, tumor cells vs normal fibroblasts [4] | tumor selectivity of growth inhibition, normal vs transformed mammary cells [5] | selectivity of growth inhibition for transformed cell lines relative to immortal but untransformed fibroblasts [6] | also measured
1 | NCCc1c[nH]c2ccc(Cl)cc12 [Compound 3] |  |  |  | anti-CDKI pathway activity in the reporter assay (induction of CMV-GFP expression in response to p21) [1]: showed anti-CDKI pathway activity in the reporter assay; growth inhibition of the HT1080-derived reporter cell line [2]: associated with the induction of both cell death (as detected microscopically by cell detachment) and cell cycle arrest
2 | COc1cc(Cl)c2[nH]cc(CCN)c2c1 [Compound 4] |  |  |  | anti-CDKI pathway activity in the reporter assay (induction of CMV-GFP expression in response to p21) [1]: showed anti-CDKI pathway activity in the reporter assay; growth inhibition of the HT1080-derived reporter cell line [2]: associated with the induction of both cell death (as detected microscopically by cell detachment) and cell cycle arrest
3 | Cc1ccc(S(=O)(=O)N[C@@H](Cc2ccccc2)C(=O)CCl)cc1 [TPCK, reference compound] |  |  |  | NFκB activity (p50 or p65 binding to NFκB consensus oligonucleotide) [3]: completely blocks NFκB activity
4 | CC[C@@]1(O)C(=O)OCc2c1cc1n(c2=O)Cc2cc3ccccc3nc2-1 [camptothecin] | showed no selectivity | no discrimination between normal and transformed mammary cells |  | 
5 | COc1cccc2c1C(=O)c1c(O)c3c(c(O)c1C2=O)C[C@@](O)(C(=O)CO)C[C@@H]3O[C@H]1C[C@H](N)[C@H](O)[C@H](C)O1 [doxorubicin] | showed no selectivity | no discrimination between normal and transformed mammary cells |  | 
6 | CN1CC[C@H](c2c(O)cc(O)c3c(=O)cc(-c4ccccc4Cl)oc23)[C@H](O)C1 [flavopiridol] |  |  | no transformed cell selectivity whatsoever | 
7 | CCn1cnc2c(Nc3cccc(Cl)c3)nc(N[C@@H]3CCCC[C@@H]3N)nc21 [selective CDK1 inhibitor, CGP74514A] |  |  | Much lower selectivity for transformed cells | 
8 | COc1ccc(CNc2nc(N(CCO)CCO)nc3c2ncn3C(C)C)cc1 [selective inhibitor of CDK2, CVT-313] |  |  | no transformed cell selectivity whatsoever | 
9 | COc1ccc(OC)c2c(=S)c3ccccc3[nH]c12 [selective inhibitor of CDK4, NSC 625987] |  |  | no transformed cell selectivity whatsoever | 
10 | CC(=O)O[C@H]1C(=O)[C@@]2(C)[C@H]([C@H](OC(=O)c3ccccc3)[C@]3(O)C[C@H](OC(=O)[C@H](O)[C@@H](NC(=O)c4ccccc4)c4ccccc4)C(C)=C1C3(C)C)[C@]1(OC(C)=O)CO[C@@H]1C[C@@H]2O [taxol, paclitaxel] | inhibited all the tumor cells to a greater extent than normal fibroblasts | clear tumor selectivity |  | 

From patent US20080200531A1, “CDKI pathway inhibitors as inhibitors of tumor cell growth” (priority 2006, published 2008)
